Values after ≈ are worked out from the molar mass of the structure shown. Values joined by “and” are separate entries in the source; they are usually repeats but may differ in a detail not shown here. Equal entries are not always repeated.
Legend:
KB (nasopharyngeal) = assay: In vitro anticancer activity against KB cells; assay type: cell-based, human; conditions: for IC50 KB: KB cells
A549 (lung) = assay: In vitro anticancer activity against A549 cells; assay type: cell-based, human; conditions: for IC50 A549: A549 cells
[1] = tested on: KB-VIN (an MDR KB subline); assay: In vitro anticancer activity against KB-VIN cells; assay type: cell-based, human; conditions: for IC50 KBvin: KBvin cells
DU-145 (prostate) = assay: In vitro anticancer activity against DU-145 cells; assay type: cell-based, human; conditions: for IC50 DU145: DU145 cells
[2] = tested on: apoptosis pathway, MAPK signaling, NF-κB pathway, focal adhesion; assay: DNA microarray and pathway analysis; assay type: cell-based
Description: (§1) The reciprocal recruitment of RelA and RelB on COX-2 promoter region led to the downregulation of transcriptional activity. […] PBT-1 may be a good drug candidate for anticancer chemotherapy.

[3] = tested on: Akt activation, RelA (p65), NF-κB target genes; assay: Akt / NF-κB signaling (gels, FIG. 2); assay type: cell-based
Description: as §1

CL1-0 = assay: Cell cycle distribution in CL1-0 cells; assay type: cell-based
Description: as §1

[4] = tested on: cyclin B1 and cyclin D1 protein; assay: Cyclin protein levels; assay type: cell-based
Description: as §1

[5] = tested on: panel of human tumor cell lines including KB, A549, DU-145 and KB-VIN; conditions: four human cancer cell lines including MDR KB-VIN; previous research (refs 6,7); read-out: IC50 against four types of human cancer cell lines; cited from earlier work
lung cancer cells = assay: Colony formation of lung cancer cells in vitro; assay type: cell-based; conditions: FIG. 1, listed as PBT-1
Description: as §1

[6] = tested on: panel of human tumor cell lines including KB, A549, DU-145 and KB-VIN; assay: In vitro anticancer activity, panel as a whole; assay type: cell-based; conditions: for IC50 values across the panel: summary of Table 1

COc1ccc2c(CN3CCCC(CN)C3)cc3cc4c(cc3c2c1)OCO4.Cl.Cl (racemic) [Compound 7]
IC50 KB (KB (nasopharyngeal)): 0.33 µg/mL | IC50 A549 (A549 (lung)): 0.28 µg/mL | IC50 KBvin [1]: 0.38 µg/mL | IC50 DU145 (DU-145 (prostate)): 0.37 µg/mL

COc1ccc2c(CN3CCCC(CNC(=O)OC(C)(C)C)C3)cc3cc4c(cc3c2c1)OCO4 (racemic) [Compound 8]
IC50 KB (KB (nasopharyngeal)): 0.53 µg/mL (≈ 1.11 µM) | IC50 A549 (A549 (lung)): 0.57 µg/mL (≈ 1.19 µM) | IC50 KBvin [1]: 0.62 µg/mL (≈ 1.3 µM) | IC50 DU145 (DU-145 (prostate)): 0.52 µg/mL (≈ 1.09 µM)

COC(=O)C1CN(Cc2cc3cc4c(cc3c3cc(OC)ccc23)OCO4)CCC1=O (racemic) [Compound 16]
IC50 KB (KB (nasopharyngeal)): 0.53 µg/mL (≈ 1.26 µM) | IC50 A549 (A549 (lung)): 0.58 µg/mL (≈ 1.38 µM) | IC50 KBvin [1]: 0.83 µg/mL (≈ 1.97 µM) | IC50 DU145 (DU-145 (prostate)): 0.78 µg/mL (≈ 1.85 µM)

COc1ccc2c(CN3CCC(CO)CC3)cc3cc4c(cc3c2c1)OCO4 [Compound 1]
pathways activated [2]: activated the apoptosis pathway and mitogen-activated protein kinase signaling | pathways suppressed [2]: suppressed the nuclear factor kappaB (NF-κB) pathway and focal adhesion | Akt activation [3]: suppress Akt activation | expressions of NF-κB target genes [3]: downregulate the expressions of NF-κB target genes | RelA (p65) degradation ([3]; via IκB kinase-α): accelerate RelA (p65) degradation | G1 (%) (CL1-0; CL1-0, 2 Hr.): 53.7% | G2/M (%) (CL1-0; CL1-0, 2 Hr.): 25.4% | S (%) (CL1-0; CL1-0, 2 Hr.): 15.1% | G1 (%) (CL1-0; CL1-0, 6 Hr.): 52.5% | G2/M (%) (CL1-0; CL1-0, 6 Hr.): 24.3% | S (%) (CL1-0; CL1-0, 6 Hr.): 15.8% | G1 (%) (CL1-0; CL1-0, 12 Hr.): 41.7% | G2/M (%) (CL1-0; CL1-0, 12 Hr.): 27.0% | S (%) (CL1-0; CL1-0, 12 Hr.): 23.9% | G1 (%) (CL1-0; CL1-0, 16 Hr.): 20.4% | G2/M (%) (CL1-0; CL1-0, 16 Hr.): 33.6% | S (%) (CL1-0; CL1-0, 16 Hr.): 34.1% | G1 (%) (CL1-0; CL1-0, 24 Hr.): 16.6% | G2/M (%) (CL1-0; CL1-0, 24 Hr.): 20.9% | S (%) (CL1-0; CL1-0, 24 Hr.): 43.8% | cell cycle arrest and apoptosis (CL1-0; Table 2): induced cell cycle G2/M arrest and apoptosis | IC50 (KB (nasopharyngeal); Homo sapiens, KB, read-out: IC50 KB): 0.07 µg/mL (≈ 0.184 µM) | IC50 (A549 (lung); Homo sapiens, A549, read-out: IC50 A549): 0.07 µg/mL (≈ 0.184 µM) | IC50 ([1]; Homo sapiens, KBVIN, read-out: IC50 KBvin): 0.08 µg/mL (≈ 0.211 µM) | cyclin B1 and cyclin D1 protein level [4]: accumulation in dose- and time-dependent manners | IC50 [5]: ~80 nM | IC50 (DU-145 (prostate); Homo sapiens, DU-145, read-out: IC50 DU145): 0.09 µg/mL (≈ 0.237 µM) | colony formation of lung cancer cells (lung cancer cells): significantly suppressed colony formation

COc1ccc2c(CN3CCCC(NC(=O)OC(C)(C)C)C3)cc3cc4c(cc3c2c1)OCO4 (stereo not drawn) [Compound 9]
IC50 KB (KB (nasopharyngeal)): 6.43 µg/mL (≈ 13.8 µM) | IC50 A549 (A549 (lung)): 6.77 µg/mL (≈ 14.6 µM) | IC50 KBvin [1]: 8.40 µg/mL (≈ 18.1 µM) | IC50 DU145 (DU-145 (prostate)): 8.00 µg/mL (≈ 17.2 µM)

COc1ccc2c(CN3CCCC(N)C3)cc3cc4c(cc3c2c1)OCO4.Cl.Cl (stereo not drawn) [Compound 10]
IC50 KB (KB (nasopharyngeal)): 3.80 µg/mL | IC50 A549 (A549 (lung)): 3.85 µg/mL | IC50 KBvin [1]: 3.88 µg/mL | IC50 DU145 (DU-145 (prostate)): 4.20 µg/mL

COc1ccc2c(CN3CCC(NC(=O)OC(C)(C)C)CC3)cc3cc4c(cc3c2c1)OCO4 [Compound 11]
IC50 KB (KB (nasopharyngeal)): 0.40 µg/mL (≈ 0.861 µM) | IC50 A549 (A549 (lung)): 0.41 µg/mL (≈ 0.883 µM) | IC50 KBvin [1]: 0.49 µg/mL (≈ 1.05 µM) | IC50 DU145 (DU-145 (prostate)): 0.43 µg/mL (≈ 0.926 µM)

COc1ccc2c(CN3CCC(N)CC3)cc3cc4c(cc3c2c1)OCO4.Cl.Cl [Compound 12]
IC50 KB (KB (nasopharyngeal)): 0.24 µg/mL | IC50 A549 (A549 (lung)): 0.16 µg/mL | IC50 KBvin [1]: 0.29 µg/mL | IC50 DU145 (DU-145 (prostate)): 0.34 µg/mL

COc1ccc2c(CN3CCC(C(F)(F)F)CC3)cc3cc4c(cc3c2c1)OCO4 [Compound 13]
IC50 KB (KB (nasopharyngeal)): 3.88 µg/mL (≈ 9.3 µM) | IC50 A549 (A549 (lung)): 2.74 µg/mL (≈ 6.56 µM) | IC50 KBvin [1]: 3.12 µg/mL (≈ 7.47 µM) | IC50 DU145 (DU-145 (prostate)): 5.24 µg/mL (≈ 12.6 µM)

COc1ccc2c(CN3CCC(C#N)CC3)cc3cc4c(cc3c2c1)OCO4 [Compound 14]
IC50 KB (KB (nasopharyngeal)): 0.42 µg/mL (≈ 1.12 µM) | IC50 A549 (A549 (lung)): 0.33 µg/mL (≈ 0.881 µM) | IC50 KBvin [1]: 0.43 µg/mL (≈ 1.15 µM) | IC50 DU145 (DU-145 (prostate)): 0.41 µg/mL (≈ 1.09 µM)

COc1ccc2c(CN3CCC(=O)CC3)cc3cc4c(cc3c2c1)OCO4 [Compound 15]
IC50 values across the panel [6]: ~40 ng/mL (≈ 0.11 µM) | IC50 KB (KB (nasopharyngeal)): 0.04 µg/mL (≈ 0.11 µM) | IC50 A549 (A549 (lung)): 0.04 µg/mL (≈ 0.11 µM) | IC50 KBvin [1]: 0.05 µg/mL (≈ 0.138 µM) | IC50 DU145 (DU-145 (prostate)): 0.04 µg/mL (≈ 0.11 µM)

COc1ccc2c(CN3CCC(NS(C)(=O)=O)CC3)cc3cc4c(cc3c2c1)OCO4 [Compound 17]
IC50 KB (KB (nasopharyngeal)): 0.29 µg/mL (≈ 0.655 µM) | IC50 A549 (A549 (lung)): 0.45 µg/mL (≈ 1.02 µM) | IC50 KBvin [1]: 0.48 µg/mL (≈ 1.08 µM) | IC50 DU145 (DU-145 (prostate)): 0.45 µg/mL (≈ 1.02 µM)

COC(=O)C1CCCN(Cc2cc3cc4c(cc3c3cc(OC)ccc23)OCO4)C1 (stereo not drawn) [Compound 18]
IC50 KB (KB (nasopharyngeal)): 0.79 µg/mL (≈ 1.94 µM) | IC50 A549 (A549 (lung)): 0.76 µg/mL (≈ 1.87 µM) | IC50 KBvin [1]: 1.24 µg/mL (≈ 3.04 µM) | IC50 DU145 (DU-145 (prostate)): 1.09 µg/mL (≈ 2.68 µM)

COC(=O)C1CCCN(Cc2cc3cc4c(cc3c3cc(OC)ccc23)OCO4)C1 (stereo not drawn) [Compound 19]
IC50 KB (KB (nasopharyngeal)): 0.53 µg/mL (≈ 1.3 µM) | IC50 A549 (A549 (lung)): 0.53 µg/mL (≈ 1.3 µM) | IC50 KBvin [1]: 0.58 µg/mL (≈ 1.42 µM) | IC50 DU145 (DU-145 (prostate)): 0.61 µg/mL (≈ 1.5 µM)

COc1ccc2c(CN3CCC(CN)CC3)cc3cc4c(cc3c2c1)OCO4.Cl.Cl [Compound 20]
IC50 KB (KB (nasopharyngeal)): 0.12 µg/mL | IC50 A549 (A549 (lung)): 0.22 µg/mL | IC50 DU145 (DU-145 (prostate)): 0.16 µg/mL

COc1ccc2c(CN3CCC(O)CC3)cc3cc4c(cc3c2c1)OCO4 [Compound 21]
IC50 values across the panel [6]: ~40 ng/mL and 30 to 40 ng/mL | fold more active compared with compound 1 ([6]; vs compound 1): about 2 fold | IC50 KB (KB (nasopharyngeal)): 0.03 µg/mL (≈ 0.0821 µM) | IC50 A549 (A549 (lung)): 0.03 µg/mL (≈ 0.0821 µM) | IC50 DU145 (DU-145 (prostate)): 0.04 µg/mL (≈ 0.109 µM)

COc1ccc2c(CN3CCCC(=O)C3)cc3cc4c(cc3c2c1)OCO4 [Compound 22]
decrease of inhibitory potency, oxo group at C-3′ (15 vs. 22) ([6]; vs compound 15): about 8 fold | IC50 KB (KB (nasopharyngeal)): 0.30 µg/mL (≈ 0.826 µM) | IC50 A549 (A549 (lung)): 0.29 µg/mL (≈ 0.798 µM) | IC50 DU145 (DU-145 (prostate)): 0.39 µg/mL (≈ 1.07 µM)

COc1ccc2c(CN3CCCC(CO)C3)cc3cc4c(cc3c2c1)OCO4 (stereo not drawn) [Compound 23]
IC50 KB (KB (nasopharyngeal)): 0.07 µg/mL (≈ 0.184 µM) | IC50 A549 (A549 (lung)): 0.05 µg/mL (≈ 0.132 µM) | IC50 DU145 (DU-145 (prostate)): 0.06 µg/mL (≈ 0.158 µM)

COc1ccc2c(CN3CCCC(CO)C3)cc3cc4c(cc3c2c1)OCO4 (stereo not drawn) [Compound 24]
IC50 KB (KB (nasopharyngeal)): 0.07 µg/mL (≈ 0.184 µM) | IC50 A549 (A549 (lung)): 0.07 µg/mL (≈ 0.184 µM) | IC50 DU145 (DU-145 (prostate)): 0.10 µg/mL (≈ 0.264 µM)

COc1ccc2c(CN3CCC(CNC(=O)OC(C)(C)C)CC3)cc3cc4c(cc3c2c1)OCO4 [Compound 25]
IC50 KB (KB (nasopharyngeal)): 0.43 µg/mL (≈ 0.898 µM) | IC50 A549 (A549 (lung)): 0.27 µg/mL (≈ 0.564 µM) | IC50 DU145 (DU-145 (prostate)): 0.40 µg/mL (≈ 0.836 µM)

— patent US20120029018A1, “9-SUBSTITUTED PHENANTHRENE BASED TYLOPHORINE DERIVATIVES” (priority 2008, published 2012)
